{
  "source": "ChEMBL document CHEMBL1240324",
  "about": "“TRPM8 voltage sensor mutants reveal a mechanism for integrating thermal and chemical stimuli” (Nat Chem Biol, 2007)",
  "key": {"[1]": {"test_system": "Transient receptor potential cation channel subfamily M member 8 (Homo sapiens), Q7Z2W7 [Y745H]", "sequence (Q7Z2W7 whole entry Y745H)": "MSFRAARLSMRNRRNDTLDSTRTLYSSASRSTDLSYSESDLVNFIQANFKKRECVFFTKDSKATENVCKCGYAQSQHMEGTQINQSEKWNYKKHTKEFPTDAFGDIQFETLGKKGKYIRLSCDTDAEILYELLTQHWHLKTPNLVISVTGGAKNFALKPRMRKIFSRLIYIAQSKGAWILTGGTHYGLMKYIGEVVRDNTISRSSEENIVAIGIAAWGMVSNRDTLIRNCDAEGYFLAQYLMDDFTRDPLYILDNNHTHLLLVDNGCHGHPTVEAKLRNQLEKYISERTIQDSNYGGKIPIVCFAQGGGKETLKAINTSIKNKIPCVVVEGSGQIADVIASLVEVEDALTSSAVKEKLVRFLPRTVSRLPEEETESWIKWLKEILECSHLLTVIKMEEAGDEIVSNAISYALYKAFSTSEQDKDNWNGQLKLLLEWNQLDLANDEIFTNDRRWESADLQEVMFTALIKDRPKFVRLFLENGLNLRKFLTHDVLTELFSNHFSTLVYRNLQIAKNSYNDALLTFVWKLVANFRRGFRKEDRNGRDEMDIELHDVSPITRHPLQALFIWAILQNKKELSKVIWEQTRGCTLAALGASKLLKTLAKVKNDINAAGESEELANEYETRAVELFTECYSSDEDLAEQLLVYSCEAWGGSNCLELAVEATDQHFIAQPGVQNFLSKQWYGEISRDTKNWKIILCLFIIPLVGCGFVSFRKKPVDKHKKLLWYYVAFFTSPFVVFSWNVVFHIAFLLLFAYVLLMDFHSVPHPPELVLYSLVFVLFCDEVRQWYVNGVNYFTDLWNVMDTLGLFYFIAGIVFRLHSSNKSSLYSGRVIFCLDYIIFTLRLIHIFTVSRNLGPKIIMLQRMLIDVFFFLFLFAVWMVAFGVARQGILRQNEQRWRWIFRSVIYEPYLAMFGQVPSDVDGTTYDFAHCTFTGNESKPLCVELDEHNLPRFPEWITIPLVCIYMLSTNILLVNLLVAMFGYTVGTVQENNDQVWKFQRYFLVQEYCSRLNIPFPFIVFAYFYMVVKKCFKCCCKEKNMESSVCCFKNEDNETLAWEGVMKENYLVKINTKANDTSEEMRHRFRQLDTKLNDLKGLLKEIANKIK", "settings": "HEK293, 100 uM"}, "[2]": {"experiment": "Binding affinity to human TRPM8 S4b_M mutant expressed in HEK293 cell membranes"}, "[3]": {"experiment": "Activity at human TRPM8 S4b_M mutant expressed in HEK293 cells assessed as compound concentration causing leftward shift of voltage for half maximal activation", "format": "cell-based"}, "[4]": {"test_system": "Transient receptor potential cation channel subfamily M member 8 (Homo sapiens), Q7Z2W7 [L1009R]", "sequence (Q7Z2W7 whole entry L1009R)": "as the sequence (Q7Z2W7 whole entry Y745H) above, with H745Y, L1009R counted along it", "settings": "HEK293, 100 uM"}, "HEK293": {"test_system": "HEK293", "experiment": "Displacement of [3H]menthol from human TRPM8 S4b_M5 mutant expressed in HEK293 cell membranes at 100 uM by scintillation counting"}},
  "note": "The source made the active and inactive calls. The calls are words filed in the database; no cut-off is given here.",
  "data": [
    {"smiles": "CC1CCC(C(C)C)C(O)C1", "note": "(stereo not given) [MENTHOL]", "values": [
      {"measurement": "inhibition", "setting": "[1]", "result": "inactive"},
      {"measurement": "Kd", "setting": "[2]", "result": 220, "unit": "µM"},
      {"measurement": "EC50", "setting": "[3]", "result": 477, "unit": "µM"},
      {"measurement": "inhibition", "setting": "[4]", "result": "Active"},
      {"measurement": "inhibition", "setting": "HEK293", "result": "inactive"}
    ]}
  ]
}
